Test results as given in ChEMBL document CHEMBL1136827, “Further exploration of 1-[2-[Bis-(4-fluorophenyl)methoxy]ethyl]piperazine (GBR 12909): role of N-aromatic, N-heteroaromatic, and 3-oxygenated N-phenylpropyl substituents on affinity for the dopamine and serotonin transporter” (Bioorg Med Chem Lett, 2003).

Assays:
[1] = biological target: Sodium-dependent serotonin transporter (Rattus norvegicus, UniProt P31652); assay: Binding affinity towards rat serotonin transporter (SERT)
[2] = biological target: Sodium-dependent dopamine transporter (Rattus norvegicus, UniProt P23977); assay: Binding affinity towards dopamine transporter (DAT)
Chain of Sodium-dependent dopamine transporter (P23977 whole entry): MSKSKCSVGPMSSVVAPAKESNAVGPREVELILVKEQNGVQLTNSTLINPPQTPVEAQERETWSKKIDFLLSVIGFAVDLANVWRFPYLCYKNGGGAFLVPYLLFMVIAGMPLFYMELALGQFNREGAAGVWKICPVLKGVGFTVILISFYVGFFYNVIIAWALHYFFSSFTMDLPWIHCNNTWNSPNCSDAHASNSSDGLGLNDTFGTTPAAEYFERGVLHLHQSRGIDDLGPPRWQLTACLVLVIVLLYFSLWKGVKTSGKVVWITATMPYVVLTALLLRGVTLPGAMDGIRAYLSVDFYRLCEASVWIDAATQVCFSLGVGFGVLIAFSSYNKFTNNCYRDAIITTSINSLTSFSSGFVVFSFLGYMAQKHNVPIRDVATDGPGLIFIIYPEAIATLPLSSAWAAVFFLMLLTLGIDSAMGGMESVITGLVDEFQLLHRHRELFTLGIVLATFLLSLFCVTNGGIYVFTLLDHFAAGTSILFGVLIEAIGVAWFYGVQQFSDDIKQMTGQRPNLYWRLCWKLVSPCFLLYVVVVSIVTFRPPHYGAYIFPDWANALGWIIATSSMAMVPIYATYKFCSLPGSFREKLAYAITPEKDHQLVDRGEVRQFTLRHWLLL

Chain of Sodium-dependent serotonin transporter (P31652 whole entry): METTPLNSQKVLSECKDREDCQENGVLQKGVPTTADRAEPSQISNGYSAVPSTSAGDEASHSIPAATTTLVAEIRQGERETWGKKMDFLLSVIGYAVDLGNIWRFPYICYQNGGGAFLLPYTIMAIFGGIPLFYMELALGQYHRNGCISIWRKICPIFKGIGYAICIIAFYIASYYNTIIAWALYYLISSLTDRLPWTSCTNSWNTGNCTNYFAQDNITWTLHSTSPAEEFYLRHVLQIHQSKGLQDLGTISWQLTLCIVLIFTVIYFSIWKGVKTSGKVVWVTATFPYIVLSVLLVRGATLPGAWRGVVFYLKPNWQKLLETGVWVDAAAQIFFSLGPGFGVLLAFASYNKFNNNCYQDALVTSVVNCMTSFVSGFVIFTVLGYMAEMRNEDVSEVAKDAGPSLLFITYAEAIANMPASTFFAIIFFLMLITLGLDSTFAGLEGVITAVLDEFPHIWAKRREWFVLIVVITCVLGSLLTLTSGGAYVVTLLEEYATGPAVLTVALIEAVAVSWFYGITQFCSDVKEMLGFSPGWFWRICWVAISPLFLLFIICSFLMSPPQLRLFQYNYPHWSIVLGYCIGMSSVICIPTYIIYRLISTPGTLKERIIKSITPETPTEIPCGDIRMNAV

SMILES	Ki [1] [nM]	Ki [2] [nM]
O[C@@H]1c2ccccc2CC[C@H]1CN1CCN(CCOC(c2ccccc2)c2ccccc2)CC1	440	59
O[C@H]1c2ccccc2CC[C@H]1CN1CCN(CCOC(c2ccc(F)cc2)c2ccc(F)cc2)CC1	30	1.3
O=C(CCN1CCN(CCOC(c2ccccc2)c2ccccc2)CC1)c1ccc(Br)cc1	2600	290
COc1ccc2c(c1)CCC(CN1CCN(CCOC(c3ccc(F)cc3)c3ccc(F)cc3)CC1)C2=O (configuration not stated)	3	22
OC1CCCCC1CN1CCN(CCOC(c2ccccc2)c2ccccc2)CC1 (configuration not stated)	3300	210
O=C1CCCCC1CN1CCN(CCOC(c2ccccc2)c2ccccc2)CC1 (configuration not stated)	3300	250
O=C(CCN1CCN(CCOC(c2ccccc2)c2ccccc2)CC1)c1cccs1	1240	190
COc1ccc2c(c1)CC[C@@H](CN1CCN(CCOC(c3ccc(F)cc3)c3ccc(F)cc3)CC1)[C@H]2O	3	7.3
O=C1CCCCCC1CN1CCN(CCOC(c2ccc(F)cc2)c2ccc(F)cc2)CC1 (configuration not stated)	530	49
OC(CCN1CCN(CCOC(c2ccc(F)cc2)c2ccc(F)cc2)CC1)c1cccc(F)c1 (configuration not stated)	53	3.9
OC(CCN1CCN(CCOC(c2ccccc2)c2ccccc2)CC1)c1cccs1 (configuration not stated)	690	15
O=C(CCN1CCN(CCOC(c2ccc(F)cc2)c2ccc(F)cc2)CC1)c1ccc(Br)cc1	480	37
Fc1ccc(C(OCCN2CCN(CC3=Cc4ccccc4CC3)CC2)c2ccc(F)cc2)cc1	260	6.4
OC1CCCCCC1CN1CCN(CCOC(c2ccc(F)cc2)c2ccc(F)cc2)CC1 (configuration not stated)	480	22
COc1ccc2c(c1)CCC(CN1CCN(CCOC(c3ccc(F)cc3)c3ccc(F)cc3)CC1)=C2	57	14
O=C1CCCC1CN1CCN(CCOC(c2ccc(F)cc2)c2ccc(F)cc2)CC1 (configuration not stated)	970	84
O=C1CCCCC1CN1CCN(CCOC(c2ccc(F)cc2)c2ccc(F)cc2)CC1 (configuration not stated)	1130	62
COc1ccc2c(c1)CCC(CN1CCN(CCOC(c3ccccc3)c3ccccc3)CC1)C2=O (configuration not stated)	70	78
OC1CCCCC1CN1CCN(CCOC(c2ccc(F)cc2)c2ccc(F)cc2)CC1 (configuration not stated)	580	37
O=C(CCN1CCN(CCOC(c2ccc(F)cc2)c2ccc(F)cc2)CC1)c1cccc(F)c1	220	89
COc1ccc2c(c1)CC[C@@H](CN1CCN(CCOC(c3ccccc3)c3ccccc3)CC1)[C@H]2O	100	32
OC(CCN1CCN(CCOC(c2ccccc2)c2ccccc2)CC1)c1cccc(F)c1 (configuration not stated)	910	4.1

SMILES	Ki [1] [nM]	Ki [2] [nM]
COc1ccc2c(c1)CC[C@@H](CN1CCN(CCOC(c3ccccc3)c3ccccc3)CC1)[C@@H]2O	93	40
OC(CCN1CCN(CCOC(c2ccc(F)cc2)c2ccc(F)cc2)CC1)c1ccc(Br)cc1 (configuration not stated)	50	2.5
O=C1c2ccccc2CCC1CN1CCN(CCOC(c2ccccc2)c2ccccc2)CC1 (configuration not stated)	1050	390
O=C1c2ccccc2CCC1CN1CCN(CCOC(c2ccc(F)cc2)c2ccc(F)cc2)CC1 (configuration not stated)	110	57
O=C1CCCC1CN1CCN(CCOC(c2ccccc2)c2ccccc2)CC1 (configuration not stated)	5700	
O=C(CCN1CCN(CCOC(c2ccc(F)cc2)c2ccc(F)cc2)CC1)c1ccco1	350	72
OC(CCN1CCN(CCOC(c2ccccc2)c2ccccc2)CC1)c1ccc(Br)cc1 (configuration not stated)	340	7.5
OC(CCN1CCN(CCOC(c2ccc(F)cc2)c2ccc(F)cc2)CC1)c1cccs1 (configuration not stated)	59	7.2
OC1CCCC1CN1CCN(CCOC(c2ccccc2)c2ccccc2)CC1 (configuration not stated)	2200	170
OC(CCN1CCN(CCOC(c2ccccc2)c2ccccc2)CC1)c1ccco1 (configuration not stated)	1940	19
OC1CCCC1CN1CCN(CCOC(c2ccc(F)cc2)c2ccc(F)cc2)CC1 (configuration not stated)	920	32
O=C(CCN1CCN(CCOC(c2ccccc2)c2ccccc2)CC1)c1ccco1	3300	300
O[C@H]1c2ccccc2CC[C@H]1CN1CCN(CCOC(c2ccccc2)c2ccccc2)CC1	500	35
O=C1CCCCCC1CN1CCN(CCOC(c2ccccc2)c2ccccc2)CC1 (configuration not stated)	4100	270
O=C(CCN1CCN(CCOC(c2ccccc2)c2ccccc2)CC1)c1cccc(F)c1	1360	260
OC(CCN1CCN(CCOC(c2ccc(F)cc2)c2ccc(F)cc2)CC1)c1ccco1 (configuration not stated)	150	10
COc1ccc2c(c1)CCC(CN1CCN(CCOC(c3ccccc3)c3ccccc3)CC1)=C2	530	39
C1=C(CN2CCN(CCOC(c3ccccc3)c3ccccc3)CC2)CCc2ccccc21	1360	38
O[C@@H]1c2ccccc2CC[C@H]1CN1CCN(CCOC(c2ccc(F)cc2)c2ccc(F)cc2)CC1	32	18
OC1CCCCCC1CN1CCN(CCOC(c2ccccc2)c2ccccc2)CC1 (configuration not stated)	3900	210
O=C(CCN1CCN(CCOC(c2ccc(F)cc2)c2ccc(F)cc2)CC1)c1cccs1	110	84
COc1ccc2c(c1)CC[C@@H](CN1CCN(CCOC(c3ccc(F)cc3)c3ccc(F)cc3)CC1)[C@@H]2O	3	18
